Test results: ChEMBL document CHEMBL2412960, “Inhibition of Mycobacterium tuberculosis strains H37Rv and MDR MS-115 by a new set of C5 modified pyrimidine nucleosides” (Bioorg Med Chem, 2013)
In brackets after ≈: the same amount, converted by molar mass. Activity calls are given as the source filed them. The calls are words filed in the database; no cut-off is given here.

Key:
[1] = Cytotoxicity against human Jurkat cells after 72 hrs by MTT assay; type: cell-based; details: read-out: CD50
[2] = tested on: Mycobacterium tuberculosis; experiment: Bacteriostatic activity against Mycobacterium tuberculosis H37Rv assessed as growth inhibition; type: functional
[3] = tested on: Mycobacterium tuberculosis; experiment: Bacteriostatic activity against Mycobacterium tuberculosis H37Rv assessed as growth inhibition at 20 ug/mL relative to control; type: functional; details: read-out: GI
[4] = Cytotoxicity against African green monkey Vero cells after 72 hrs by MTT assay; type: cell-based; details: chlorocebus sabaeus, read-out: CD50
[5] = Cytotoxicity against human A549 cells after 72 hrs by MTT assay; type: cell-based; details: read-out: CD50
[6] = tested on: Mycobacterium tuberculosis; experiment: Bacteriostatic activity against Mycobacterium tuberculosis H37Rv assessed as growth inhibition at 5 ug/mL relative to control; type: functional; details: read-out: GI
[7] = tested on: Mycobacterium tuberculosis; experiment: Bacteriostatic activity against Mycobacterium tuberculosis H37Rv assessed as growth inhibition at 10 ug/mL relative to control; type: functional; details: read-out: GI
[8] = tested on: Mycobacterium tuberculosis; experiment: Bacteriostatic activity against Mycobacterium tuberculosis H37Rv assessed as growth inhibition at 50 ug/mL relative to control; type: functional; details: read-out: GI
Aspergillus niger = experiment: Antifungal activity against Aspergillus niger INA 00760; type: functional, organism-based
[9] = tested on: Mycobacterium tuberculosis; experiment: Bacteriostatic activity against Mycobacterium tuberculosis H37Rv assessed as growth inhibition at 40 ug/mL relative to control; type: functional; details: read-out: GI
Saccharomyces cerevisiae = experiment: Antifungal activity against Saccharomyces cerevisiae RIA 259; type: functional, organism-based
Bacillus subtilis = experiment: Antibacterial activity against Bacillus subtilis ATCC 6633; type: functional, organism-based
Pseudomonas aeruginosa = experiment: Antibacterial activity against Pseudomonas aeruginosa ATCC 27853; type: functional, organism-based
[10] = tested on: Leuconostoc mesenteroides; experiment: Antibacterial activity against vancomycin-resistant Leuconostoc mesenteroides VKPM B-4177; type: functional
Escherichia coli = experiment: Antibacterial activity against Escherichia coli ATCC 25922; type: functional, organism-based
Staphylococcus aureus [11] = experiment: Antibacterial activity against methicillin-resistant Staphylococcus aureus INA 00761; type: functional, organism-based
Micrococcus luteus = experiment: Antibacterial activity against Micrococcus luteus NCTC 8340; type: functional, organism-based
Bacillus pumilus = experiment: Antibacterial activity against Bacillus pumilus NCTC 8241; type: functional, organism-based
Staphylococcus aureus [12] = experiment: Antibacterial activity against methicillin-susceptible Staphylococcus aureus FDA 209P; type: functional, organism-based
Bacillus mycoides = experiment: Antibacterial activity against Bacillus mycoides 537; type: functional, organism-based
[13] = tested on: Mycobacterium tuberculosis; experiment: Bacteriostatic activity against Mycobacterium tuberculosis H37Rv assessed as growth inhibition at 1 ug/mL relative to control; type: functional; details: read-out: GI
[14] = tested on: Mycobacterium tuberculosis; experiment: Bacteriostatic activity against Mycobacterium tuberculosis H37Rv assessed as growth inhibition at 100 ug/mL relative to control; type: functional; details: read-out: GI

Compound	CC50 at 72 h [1] [µg/mL]	MIC99 [2] [µg/mL]	inhibition of growth at 20 µg/mL [3] [%]	CC50 at 72 h [4] [µg/mL]	CC50 at 72 h [5] [µg/mL]	inhibition of growth at 10 µg/mL [7] [%]	inhibition of growth at 50 µg/mL [8] [%]	Activity (Aspergillus niger)	inhibition of growth at 40 µg/mL [9] [%]	Activity (Saccharomyces cerevisiae)	Activity (Bacillus subtilis)	Activity (Pseudomonas aeruginosa)	Activity [10]	Activity (Escherichia coli)	Activity (Staphylococcus aureus [11])	Activity (Micrococcus luteus)	Activity (Bacillus pumilus)	Activity (Staphylococcus aureus [12])	Activity (Bacillus mycoides)	also measured
CCCCCCCCCCCCOCc1cn([C@H]2C[C@H](O)[C@@H](CI)O2)c(=O)[nH]c1=O	> 100	10 (≈ 18.6 µM)	100	70 (≈ 130 µM)	> 100	100	100													inhibition of growth at 5 µg/mL [6]: 90%
CCCCCCCCCCCCc1cn(Cc2cn([C@H]3C[C@H](O)[C@@H](CO)O3)c(=O)[nH]c2=O)nn1	> 100	10 (≈ 20.9 µM)	99	> 100	> 100	99		inactive	100	inactive	inactive	inactive	inactive	inactive	inactive	inactive	inactive	inactive	inactive	inhibition of growth at 5 µg/mL [6]: 90%
CCCCCCCCc1cn(Cc2cn([C@H]3C[C@H](O)[C@@H](CO)O3)c(=O)[nH]c2=O)nn1	> 100	20 (≈ 47.4 µM)	99	> 100	> 100	90		inactive	100	inactive	inactive	inactive	inactive	inactive	inactive	inactive	inactive	inactive	inactive	
CCCCCCCCCCCOCc1cn([C@H]2C[C@H](O)[C@@H](CO)O2)c(=O)[nH]c1=O	70 (≈ 170 µM)	20 (≈ 48.5 µM)	99	> 100	90 (≈ 218 µM)			inactive	100	inactive	inactive	inactive	inactive	inactive	inactive	inactive	inactive	inactive	inactive	
CO[C@H]1/C=C/O[C@@]2(C)Oc3c(C)c(O)c4c(O)c(c(/C=N/N5CCN(C)CC5)c(O)c4c3C2=O)NC(=O)/C(C)=C\C=C\[C@H](C)[C@H](O)[C@@H](C)[C@@H](O)[C@@H](C)[C@H](OC(C)=O)[C@@H]1C [RIFAMPIN]		1 (≈ 1.22 µM)		> 500																inhibition of growth at 1 µg/mL [13]: 100%
CCCCCCCCCCCCOCc1cn([C@H]2C[C@H](O)[C@@H](CN)O2)c(=O)[nH]c1=O	7 (≈ 16.4 µM)	20 (≈ 47 µM)	100	14 (≈ 32.9 µM)	8 (≈ 18.8 µM)	50	100													inhibition of growth at 100 µg/mL [14]: 100%
CCCCCCCCCCOCc1cn([C@H]2C[C@H](O)[C@@H](CO)O2)c(=O)[nH]c1=O		40 (≈ 100 µM)		> 100				inactive	99	inactive	inactive	inactive	inactive	inactive	inactive	inactive	inactive	inactive	inactive	
CCCCCCCCCCCCOCc1cn([C@H]2C[C@H](O)[C@@H](CO)O2)c(=O)[nH]c1=O	100 (≈ 234 µM)	20 (≈ 46.9 µM)	100	> 100	100 (≈ 234 µM)	90	100	inactive		inactive	inactive	inactive	inactive	inactive	inactive	inactive	inactive	inactive	inactive	inhibition of growth at 5 µg/mL [6]: 25%; inhibition of growth at 100 µg/mL [14]: 100%
NNC(=O)c1ccncc1 [ISONIAZID]		0.1 (≈ 0.729 µM)																		
CC1COc2c(N3CCN(C)CC3)c(F)cc3c(=O)c(C(=O)O)cn1c23 (configuration not stated) [OFLOXACIN]		2 (≈ 5.53 µM)																		
CCCCCCCCCCCCOCc1cn([C@H]2C[C@H](N(CC)CC)[C@@H](CO)O2)c(=O)[nH]c1=O	5 (≈ 10.4 µM)	20 (≈ 41.5 µM)	99	7.5 (≈ 15.6 µM)	5 (≈ 10.4 µM)	75	100													inhibition of growth at 100 µg/mL [14]: 100%
